In one test the target is BTK (Homo sapiens (Human), UniProt Q06187). The test can be described thus: In vitro BTK kinase assay: BTK-POLYGAT-LS ASSAY.
Sequence of BTK (Q06187 whole entry): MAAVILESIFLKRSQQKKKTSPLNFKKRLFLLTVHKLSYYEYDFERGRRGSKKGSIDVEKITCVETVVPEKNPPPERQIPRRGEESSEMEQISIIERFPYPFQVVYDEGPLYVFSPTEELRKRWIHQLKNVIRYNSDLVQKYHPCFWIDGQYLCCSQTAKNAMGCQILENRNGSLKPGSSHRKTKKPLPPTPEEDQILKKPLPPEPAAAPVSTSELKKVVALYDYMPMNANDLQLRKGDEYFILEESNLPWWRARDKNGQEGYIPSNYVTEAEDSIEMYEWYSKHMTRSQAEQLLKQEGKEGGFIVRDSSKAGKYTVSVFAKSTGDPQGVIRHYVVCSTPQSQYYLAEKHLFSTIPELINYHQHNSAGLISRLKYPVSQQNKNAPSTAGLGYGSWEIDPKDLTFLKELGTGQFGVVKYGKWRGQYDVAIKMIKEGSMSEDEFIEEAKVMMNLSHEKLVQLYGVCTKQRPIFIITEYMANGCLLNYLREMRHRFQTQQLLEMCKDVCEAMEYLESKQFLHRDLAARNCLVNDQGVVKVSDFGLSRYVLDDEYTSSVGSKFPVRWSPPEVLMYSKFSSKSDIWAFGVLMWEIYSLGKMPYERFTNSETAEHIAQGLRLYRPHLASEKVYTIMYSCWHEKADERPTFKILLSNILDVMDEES
Settings: not given
Usually IC50 stands for the concentration that inhibits the measured activity by half. The compound `CN(C)c1ccccc1NC(=O)Nc1cccc(C2CCCN(c3ncnc4[nH]ccc34)C2)c1` (stereo not shown) [Cmpd 34, 1-(3-(1-(7H-pyrrolo[2,3-d]pyrimidin-4-yl)piperidin-3-yl)phenyl)-3-(2-(dimethylamino)phenyl)urea] showed an IC50 of 1000 to 10000 nM.
On the same count and under the same terms, as for `O=C(Nc1cccc(C2CCCN(c3ncnc4[nH]ccc34)C2)c1)Nc1c(F)cccc1C(F)(F)F` (stereo not shown) [compound 194], the figure is 1000 to 10000 nM.
The same measure, in the same setting: as for `N#Cc1c(N)ncnc1N1CCCC(c2ccc(OC(F)(F)F)c(NC(=O)C3CCCCC3)c2)C1` (stereo not shown) [compound 144, N-(5-(1-(6-amino-5-cyanopyrimidin-4-yl)piperidin-3-yl)-2-(trifluoromethoxy)phenyl)cyclohexanecarboxamide], the figure is 1000 to 10000 nM; as for `O=C(Nc1cccc(C2CN(c3ncnc4[nH]ccc34)CCN2CCO)c1)Nc1ccccc1N1CCCC1` (stereo not shown) [compound 124, 1-(3-(1-(2-hydroxyethyl)-4-(7H-pyrrolo[2,3-d]pyrimidin-4-yl)piperazin-2-yl)phenyl)-3-(2-(pyrrolidin-1-yl)phenyl)urea], 100 to 999 nM.
Same read-out and setting: as for `CC(C)c1ccccc1NC(=O)Nc1cccc(C2CN(c3ncnc4[nH]ccc34)CCN2CCO)c1` (stereo not shown) [compound 133, 1-(3-(1-(2-hydroxyethyl)-4-(7H-pyrrolo[2,3-d]pyrimidin-4-yl)piperazin-2-yl)phenyl)-3-(2-isopropylphenyl)urea], the figure is 100 to 999 nM.
Compound `N#C/N=C(\Nc1cccc(C2CCCN(c3ncnc4[nH]ccc34)C2)c1)Nc1c(Cl)cccc1Cl` (stereo not shown) [compound 269] yielded an IC50 of 100 to 999 nM.
On the same count and under the same terms, then `O=C(Nc1ccccc1)Nc1cccc(C2CCCN(c3ncnc4[nH]ncc34)C2)c1` (stereo not shown) [Cmpd 91, 1-(3-(1-(1H-pyrazolo[3,4-d]pyrimidin-4-yl)piperidin-3-yl)phenyl)-3-phenylurea], with 1000 to 10000 nM; and `O=C(Nc1cccc(C2CCCN(c3ncnc4[nH]ccc34)C2)c1)Nc1ccccc1-n1ccnc1` (stereo not shown) [Cmpd 35, 1-(2-(1H-imidazol-1-yl)phenyl)-3-(3-(1-(7H-pyrrolo[2,3-d]pyrimidin-4-yl)piperidin-3-yl)phenyl)urea], with 1000 to 10000 nM.
`CC(C)(O)c1ccccc1NC(=O)Nc1cccc(C2CCCN(c3ncnc4[nH]ccc34)C2)c1` (stereo not shown) [compound 195]: the IC50 lay within 1000 to 10000 nM.
Still for that read-out and setting: then `N[C@H]1CCN(c2ccccc2NC(=O)Nc2cccc(C3CCCN(c4ncnc5[nH]ccc45)C3)c2)C1` (stereo partly shown) [compound 169], with 100 to 999 nM; and `O=C(Nc1cccc(C2CCCN(c3ncnc4[nH]ccc34)C2)c1)c1ccc(Cl)cc1` (stereo not shown) [Cmpd 3, N-(3-(1-(7H-pyrrolo[2,3-d]pyrimidin-4-yl)piperidin-3-yl)phenyl)-4-chlorobenzamide], with 1000 to 10000 nM; and `O=C(NC[C@H]1CCCC[C@H]1O)Nc1cccc(C2CCCN(c3ncnc4[nH]ccc34)C2)c1` (stereo partly shown) [compound 218], with 1000 to 10000 nM.
The same measure, in the same setting: as for `CC(=O)NCc1ccccc1NC(=O)Nc1cccc(C2CCCN(c3ncnc4[nH]ccc34)C2)c1` (stereo not shown) [Cmpd 62, N-(2-(3-(3-(1-(7H-pyrrolo[2,3-d]pyrimidin-4-yl)piperidin-3-yl)phenyl)ureido)benzyl)acetamide], the figure is 1000 to 10000 nM; as for `O=C(Nc1cccc(C2CCCN(c3ncnc4[nH]ccc34)C2)c1)NC1CCCC1` (stereo not shown) [compound 193], 1000 to 10000 nM.
Still for that read-out and setting: as for `COc1ncccc1NC(=O)Nc1cccc(C2CCCN(c3ncnc4[nH]ccc34)C2)c1` (stereo not shown) [compound 215], the figure is 1000 to 10000 nM; as for `O=C(Nc1ccccc1)Nc1cccc(C2CCCN(c3ncnc4[nH]nc(Br)c34)C2)c1` (stereo not shown) [Cmpd 100, 1-(3-(1-(3-Bromo-1H-pyrazolo[3,4-d]pyrimidin-4-yl)piperidin-3-yl)phenyl)-3-phenylurea], 1000 to 10000 nM; as for `O=C(Nc1ccccc1)N[C@@H]1CCCN(C2CCCN(c3ncnc4[nH]ccc34)C2)C1` (stereo partly shown) [compound 205], 1000 to 10000 nM.
Regarding `N#C/N=C(\Nc1cccc(C2CCCN(c3ncnc4[nH]ccc34)C2)c1)NC1CCCCC1` (stereo not shown) [Cmpd 75], the 50% inhibitory concentration (IC50) was in the range of 1000 to 10000 nM.
On the same count and under the same terms, then `O=C(NCc1cccc(C2CCCN(c3ncnc4[nH]ccc34)C2)c1)Nc1ccccc1` (stereo not shown) [compound 216], with 1000 to 10000 nM; and `Nc1ncnc(N2CC[C@H](C(F)(F)F)[C@@H](N3CCC[C@H](Nc4cc(Cl)cc(Cl)c4)C3=O)C2)c1F` [compound 338, trans (3S)-1′-(6-amino-5-fluoropyrimidin-4-yl)-3-(3,5-dichlorophenylamino)-4′-(trifluoromethyl)-1,3′-bipiperidin-2-one], with 1000 to 10000 nM; and `O=C(Nc1ccsc1)Nc1cccc(C2CCCN(c3ncnc4[nH]ccc34)C2)c1` (stereo not shown) [Cmpd 32, 1-(3-(1-(7H-pyrrolo[2,3-d]pyrimidin-4-yl)piperidin-3-yl)phenyl)-3-(thiophen-3-yl)urea], with 1000 to 10000 nM.

Staying with this test, now noted: read-out: IC50 (10 uM ATP).
Turning to `Nc1ncnc(N2CCC[C@@H](N3CCC[C@H](Nc4cc(Cl)cc(C(F)(F)F)c4)C3=O)C2)c1F` [compound 312, (3S,3′R)-1′-(6-Amino-5-fluoropyrimidin-4-yl)-3-(3-chloro-5-(trifluoromethyl)phenylamino)-1,3′-bipiperidin-2-one], the IC50 was < 100 nM.

The same test, now with this note: read-out: IC50 (10 uM ATP); 10 uM ATP; in vitro Btk kinase assay, Example 41.
For the compound `Cc1cc(=O)nc(Nc2cccc(C3CCCN(c4ncnc5[nH]ccc45)C3)c2)[nH]1` (stereo not shown) [compound 122, 2-(3-(1-(7H-pyrrolo[2,3-d]pyrimidin-4-yl)piperidin-3-yl)phenylamino)-6-methylpyrimidin-4(1H)-one], the concentration for half-maximal inhibition (IC50) was > 10000 nM.
Same read-out and setting: then `Nc1ncnc(N2CCOCC(N3CCCC(Nc4cc(Cl)cc(Cl)c4)C3=O)C2)c1F` (stereo not shown) [compound 344], with < 100 nM; and `O=C(NCC1CCCCN1)Nc1cccc(C2CCCN(c3ncnc4[nH]ccc34)C2)c1` (stereo not shown) [compound 252], with > 10000 nM; and `CNc1cc(N2CCCC(c3cccc(NC(=O)Nc4ccccc4)c3)C2)ncn1` (stereo not shown) [Cmpd 95, 1-(3-(1-(6-(methylamino)pyrimidin-4-yl)piperidin-3-yl)phenyl)-3-phenylurea], with > 10000 nM.
Consider `N[C@@H](C(=O)Nc1cccc(C2CCCN(c3ncnc4[nH]ccc34)C2)c1)c1ccccc1` (stereo partly drawn) [Cmpd 21, (2R)—N-(3-(1-(7H-pyrrolo[2,3-d]pyrimidin-4-yl)piperidin-3-yl)phenyl)-2-amino-2-phenylacetamide], for which the IC50 was > 10000 nM.
The same measure, in the same setting: as for `O=C(Nc1ccccc1)Nc1cccc(C2CCCN(c3ncnc4[nH]cnc34)C2)c1` (stereo not shown) [compound 174], the figure is 100 to 999 nM.
Consider `CNc1c(Nc2cccc(C3CCCN(c4ncnc5[nH]ccc45)C3)c2)c(=O)c1=O` (stereo not shown) [Cmpd 72, 3-(3-(1-(7H-pyrrolo[2,3-d]pyrimidin-4-yl)piperidin-3-yl)phenylamino)-4-(methylamino)cyclobut-3-ene-1,2-dione], for which the IC50 is > 10000 nM.
Turning to `Nc1ncnc(N2CCC[C@@H](N3CCC[C@@H](Nc4cc(Cl)cc(Cl)c4)C3=O)C2)c1F` [compound 315, (3R,3′R)-1′-(6-Amino-5-fluoropyrimidin-4-yl)-3-(3,5-dichlorophenylamino)-1,3′-bipiperidin-2-one], the 50% inhibitory concentration (IC50) was < 100 nM.
On the same count and under the same terms, then `O=C(Nc1ccccc1)Nc1cc(C2CCCN(c3ncnc4[nH]ccc34)C2)ccc1OC(F)(F)F` (stereo not shown) [compound 267], with > 10000 nM; and `O=C(Nc1cccc(C2CCCN(c3ncnc4[nH]ccc34)C2)c1)Nc1ccncc1Cl` (stereo not shown) [compound 222], with > 10000 nM.
Same read-out and setting: then `COc1ccc(C(=O)Nc2cccc(C3CCCN(c4ncnc5[nH]ccc45)C3)c2)cc1` (stereo not shown) [Cmpd 8, N-(3-(1-(7H-pyrrolo[2,3-d]pyrimidin-4-yl)piperidin-3-yl)phenyl)-4-methoxybenzamide], with > 10000 nM; and `O=C(Cc1ccccc1)Nc1cccc(C2CCCN(c3ncnc4[nH]ccc34)C2)c1` (stereo not shown) [Cmpd 9, N-(3-(1-(7H-pyrrolo[2,3-d]pyrimidin-4-yl)piperidin-3-yl)phenyl)-2-phenylacetamide], with > 10000 nM; and `O=C(Nc1csc(C2CCCN(c3ncnc4[nH]ccc34)C2)n1)Nc1c(F)cc(F)cc1N1CCCC1` (stereo not shown) [compound 111, 1-(2-(1-(7H-pyrrolo[2,3-d]pyrimidin-4-yl)piperidin-3-yl)thiazol-4-yl)-3-(2,4-difluoro-6-(pyrrolidin-1-yl)phenyl)urea], with < 100 nM.
On the same count and under the same terms, then `Nc1ncnc(N2CCC(C(F)(F)F)C(N3CC=CC[C@@H](Nc4cc(F)cc(Cl)c4)C3=O)C2)c1F` (stereo partly drawn) [compound 349, trans (R,Z)-1-(-1-(6-amino-5-fluoropyrimidin-4-yl)-4-(trifluoromethyl)piperidin-3-yl)-3-(3-chloro-5-fluorophenylamino)-3,4-dihydro-1H-azepin-2(7H)-one], with < 100 nM.
With `O=C(Nc1cccc(C2CCCN(c3ncnc4[nH]ccc34)C2)c1)c1ccccc1Cl` (stereo not shown) [Cmpd 5, N-(3-(1-(7H-pyrrolo[2,3-d]pyrimidin-4-yl)piperidin-3-yl)phenyl)-2-chlorobenzamide], the IC50 was > 10000 nM.
The same measure, in the same setting: as for `CN1CCC(O)(CNC(=O)Nc2cccc(C3CCCN(c4ncnc5[nH]ccc45)C3)c2)CC1` (stereo not shown) [compound 235], the figure is > 10000 nM.
Still for that read-out and setting: then `C[C@@H]1CCCN1c1cccc(F)c1NC(=O)Nc1cccc(C2CCCN(c3ncnc4[nH]ccc34)C2)c1` (stereo partly drawn) [Cmpd 52, 1-(3-(1-(7H-pyrrolo[2,3-d]pyrimidin-4-yl)piperidin-3-yl)phenyl)-3-(2-fluoro-6-((R)-2-methylpyrrolidin-1-yl)phenyl)urea], with < 100 nM; and `O=C(NCC1CCNC1)Nc1cccc(C2CCCN(c3ncnc4[nH]ccc34)C2)c1` (stereo not shown) [compound 233], with > 10000 nM.
Still for that read-out and setting: as for `c1cnc(Nc2cccc(C3CCCN(c4ncnc5[nH]ccc45)C3)c2)nc1` (stereo not shown) [compound 141, N-(3-(1-(7H-pyrrolo[2,3-d]pyrimidin-4-yl)piperidin-3-yl)phenyl)pyrimidin-2-amine], the figure is > 10000 nM.
As to `O=C1C(NC2CCCC2)CCCN1[C@@H]1CCCN(c2ncnc3[nH]ccc23)C1` (stereo partly drawn) [compound 303, (3′R)-3-(Cyclopentylamino)-1′-(7H-pyrrolo[2,3-d]pyrimidin-4-yl)-1,3′-bipiperidin-2-one], the IC50 was > 10000 nM.
Same read-out and setting: as for `N#C/N=C(/NCC1CCCCC1)Nc1cccc(C2CCCN(c3ncnc4[nH]ccc34)C2)c1` (stereo not shown) [Cmpd 76, (E)-1-(3-(1-(7H-pyrrolo[2,3-d]pyrimidin-4-yl)piperidin-3-yl)phenyl)-2-cyano-3-(cyclohexylmethyl)guanidine], the figure is > 10000 nM.
